Data published in ChEMBL document CHEMBL1201862, “PubChem BioAssay data set” (2004).
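Following 48 hours of exposure in 96-well plates, responses at five concentrations were used to interpolate endpoints linearly. Abbreviation: GI50, concentration required for 50% inhibition of growth.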 Activity calls are given as the source filed them. Rule as the data show it: active = GI50 up to about 1.1 µM and inactive = higher.

Key:
Test in all cases: NCI-60 cell line screen, 48 h
HT-29 = system: HT-29
K562 = system: K562
UACC-62 = system: UACC-62
HOP-62 = system: HOP-62
NCI/ADR-RES = system: NCI/ADR-RES
Malme-3M = system: Malme-3M
MDA-MB-231 = system: MDA-MB-231
LOX IMVI = system: LOX IMVI
PC-3 = system: PC-3
MDA-N = system: MDA-N
TK-10 = system: TK-10
ACHN = system: ACHN
RPMI-8226 = system: RPMI-8226
OVCAR-4 = system: OVCAR-4
Hs-578T = system: Hs-578T
NCI-H23 = system: NCI-H23
NCI-H522 = system: NCI-H522
NCI-H226 = system: NCI-H226
SF-295 = system: SF-295
SF-268 = system: SF-268
A549 = system: A549
DU-145 = system: DU-145
UACC-257 = system: UACC-257
SK-MEL-28 = system: SK-MEL-28
HCT-15 = system: HCT-15
SF-539 = system: SF-539
OVCAR-8 = system: OVCAR-8
U-251 = system: U-251
HL-60 = system: HL-60
RXF 393 = system: RXF 393
M14 = system: M14
MDA-MB-435 = system: MDA-MB-435
UO-31 = system: UO-31
KM12 = system: KM12
SN12C = system: SN12C
HCT-116 = system: HCT-116
NCI-H460 = system: NCI-H460
A498 = system: A498
MCF7 = system: MCF7
SK-OV-3 = system: SK-OV-3
SW-620 = system: SW-620
SR = system: SR
COLO 205 = system: COLO 205
HOP-92 = system: HOP-92
SNB-19 = system: SNB-19
SK-MEL-5 = system: SK-MEL-5
SNB-75 = system: SNB-75
OVCAR-3 = system: OVCAR-3
IGROV-1 = system: IGROV-1
CCRF-CEM = system: CCRF-CEM
EKVX = system: EKVX
CAKI-1 = system: CAKI-1
MOLT-4 = system: MOLT-4
OVCAR-5 = system: OVCAR-5
SK-MEL-2 = system: SK-MEL-2
786-0 = system: 786-0
HCC 2998 = system: HCC 2998

O=S(=O)(O)c1ccc2c(/N=N/c3ccccc3)c(O)ccc2c1
GI50 (HT-29): > 100 µM (inactive)
GI50 (K562): > 100 µM (inactive)
GI50 (UACC-62): > 100 µM (inactive)
GI50 (HOP-62): > 100 µM (inactive)
GI50 (NCI/ADR-RES): > 100 µM (inactive)
GI50 (Malme-3M): > 100 µM (inactive)
GI50 (MDA-MB-231): > 100 µM (inactive)
GI50 (LOX IMVI): > 100 µM (inactive)
GI50 (PC-3): > 100 µM (inactive)
GI50 (MDA-N): > 100 µM (inactive)
GI50 (TK-10): > 100 µM (inactive)
GI50 (ACHN): > 100 µM (inactive)
GI50 (RPMI-8226): > 100 µM (inactive)
GI50 (OVCAR-4): > 100 µM (inactive)
GI50 (Hs-578T): > 100 µM (inactive)
GI50 (NCI-H23): > 100 µM (inactive)
GI50 (NCI-H522): > 100 µM (inactive)
GI50 (NCI-H226): > 100 µM (inactive)
GI50 (SF-295): > 100 µM (inactive)
GI50 (SF-268): > 100 µM (inactive)
GI50 (A549): > 100 µM (inactive)

CC(C)[Si](Oc1cc2c3c(ccc2c(O)c1[C@@H](C)CO[Si](C)(C)C(C)(C)C)C(C)(C)CCC3)(C(C)C)C(C)C
GI50 (DU-145): > 100 µM (inactive)
GI50 (UACC-257): 29.4 µM (inactive)
GI50 (SK-MEL-28): > 100 µM (inactive)
GI50 (HCT-15): > 100 µM
GI50 (SF-539): > 100 µM (inactive)
GI50 (OVCAR-8): > 100 µM (inactive)
GI50 (U-251): > 100 µM (inactive)
GI50 (HL-60): 17.6 µM (inactive)
GI50 (RXF 393): > 100 µM (inactive)
GI50 (M14): > 100 µM (inactive)
GI50 (MDA-MB-435): > 100 µM (inactive)
GI50 (UO-31): > 100 µM (inactive)
GI50 (KM12): > 100 µM (inactive)
GI50 (HT-29): > 100 µM (inactive)
GI50 (K562): 43.7 µM (inactive)
GI50 (UACC-62): > 100 µM (inactive)
GI50 (SN12C): > 100 µM (inactive)
GI50 (HOP-62): > 100 µM (inactive)
GI50 (HCT-116): > 100 µM (inactive)
GI50 (NCI/ADR-RES): > 100 µM (inactive)
GI50 (Malme-3M): 22.6 µM (inactive)
GI50 (MDA-MB-231): > 100 µM (inactive)
GI50 (NCI-H460): 78 µM (inactive)
GI50 (A498): > 100 µM (inactive)
GI50 (MCF7): > 100 µM (inactive)
GI50 (SK-OV-3): > 100 µM (inactive)
GI50 (SW-620): > 100 µM (inactive)
GI50 (SR): 51.5 µM (inactive)
GI50 (LOX IMVI): 64.4 µM (inactive)
GI50 (PC-3): 74.6 µM (inactive)
GI50 (COLO 205): > 100 µM (inactive)
GI50 (HOP-92): > 100 µM (inactive)
GI50 (SNB-19): > 100 µM (inactive)
GI50 (MDA-N): > 100 µM (inactive)
GI50 (TK-10): > 100 µM (inactive)
GI50 (ACHN): > 100 µM (inactive)
GI50 (SK-MEL-5): 23.8 µM (inactive)
GI50 (RPMI-8226): 49.8 µM (inactive)
GI50 (SNB-75): 69.8 µM (inactive)
GI50 (OVCAR-4): > 100 µM (inactive)
GI50 (Hs-578T): > 100 µM (inactive)
GI50 (OVCAR-3): 86.1 µM (inactive)
GI50 (NCI-H23): > 100 µM (inactive)
GI50 (IGROV-1): 87.5 µM (inactive)
GI50 (CCRF-CEM): 43.4 µM (inactive)
GI50 (EKVX): > 100 µM (inactive)
GI50 (NCI-H522): 39.5 µM (inactive)
GI50 (CAKI-1): > 100 µM (inactive)
GI50 (MOLT-4): 29.9 µM (inactive)
GI50 (NCI-H226): > 100 µM (inactive)
GI50 (OVCAR-5): > 100 µM (inactive)
GI50 (SF-295): 92.3 µM (inactive)
GI50 (SF-268): > 100 µM (inactive)
GI50 (SK-MEL-2): > 100 µM (inactive)
GI50 (786-0): > 100 µM (inactive)
GI50 (A549): > 100 µM (inactive)

O=c1[nH]n(Cc2ccccn2)c2ccc([N+](=O)[O-])cc12
GI50 (DU-145): > 100 µM (inactive)
GI50 (UACC-257): > 100 µM (inactive)
GI50 (SK-MEL-28): > 100 µM (inactive)
GI50 (HCT-15): > 100 µM
GI50 (SF-539): > 100 µM (inactive)
GI50 (OVCAR-8): > 100 µM (inactive)
GI50 (U-251): > 100 µM (inactive)
GI50 (HL-60): > 100 µM (inactive)
GI50 (RXF 393): > 100 µM (inactive)
GI50 (M14): > 100 µM (inactive)
GI50 (UO-31): > 100 µM (inactive)
GI50 (KM12): > 100 µM (inactive)
GI50 (HT-29): > 100 µM (inactive)
GI50 (K562): > 100 µM (inactive)
GI50 (UACC-62): > 100 µM (inactive)
GI50 (SN12C): > 100 µM (inactive)
GI50 (HOP-62): > 100 µM (inactive)
GI50 (HCT-116): > 100 µM (inactive)
GI50 (NCI/ADR-RES): > 100 µM (inactive)
GI50 (Malme-3M): > 100 µM (inactive)
GI50 (MDA-MB-231): > 100 µM (inactive)
GI50 (NCI-H460): > 100 µM (inactive)
GI50 (A498): > 100 µM (inactive)
GI50 (SW-620): > 100 µM (inactive)
GI50 (SR): > 100 µM (inactive)
GI50 (LOX IMVI): > 100 µM (inactive)
GI50 (PC-3): > 100 µM (inactive)
GI50 (COLO 205): > 100 µM (inactive)
GI50 (HOP-92): > 100 µM (inactive)
GI50 (SNB-19): > 100 µM (inactive)
GI50 (HCC 2998): > 100 µM (inactive)
GI50 (MDA-N): > 100 µM (inactive)
GI50 (TK-10): > 100 µM (inactive)
GI50 (ACHN): > 100 µM (inactive)
GI50 (SK-MEL-5): > 100 µM (inactive)
GI50 (RPMI-8226): > 100 µM (inactive)
GI50 (SNB-75): > 100 µM (inactive)
GI50 (OVCAR-4): > 100 µM (inactive)
GI50 (Hs-578T): > 100 µM (inactive)
GI50 (OVCAR-3): > 100 µM (inactive)
GI50 (NCI-H23): > 100 µM (inactive)
GI50 (IGROV-1): > 100 µM (inactive)
GI50 (CCRF-CEM): > 100 µM (inactive)
GI50 (EKVX): > 100 µM (inactive)
GI50 (NCI-H522): > 100 µM (inactive)
GI50 (CAKI-1): > 100 µM (inactive)
GI50 (MOLT-4): > 100 µM (inactive)
GI50 (NCI-H226): > 100 µM (inactive)
GI50 (OVCAR-5): > 100 µM (inactive)
GI50 (SF-268): > 100 µM (inactive)
GI50 (SK-MEL-2): > 100 µM (inactive)
GI50 (786-0): > 100 µM (inactive)
GI50 (A549): > 100 µM (inactive)
